According to PMC11876601 (Molecular Systems Biology, 2025):
Like-named read-outs stand apart in the source and are kept apart here.

Key:
Assay in all cases: cells
Colo-357 [1] = system: Colo-357; parameters: ATPlite luminescence viability of PDAC cell lines, 11-dose single-agent curves, 4-parameter fit; settings: Homo sapiens, COLO357, 72 h, read-out: EC50 [nM]
Procedure, shortened: (§1)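 cells (1000 to 5000 per well) seeded 24 h before drug addition in a combination screen at 0.2% final DMSO. Controls were drug-free wells (negative) and 5 µM staurosporine (positive).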

HPDE [2] = system: HPDE; parameters: ATPlite luminescence viability of PDAC cell lines, 11-dose single-agent curves, 4-parameter fit; settings: HPDE, 72 h, read-out: EC50 [nM]
Procedure, shortened: as §1

Dan-G [3] = system: Dan-G; parameters: ATPlite luminescence viability of PDAC cell lines, 11-dose single-agent curves, 4-parameter fit; settings: 72 h, read-out: EC50 [nM]
Procedure, shortened: as §1

AsPC-1 [4] = system: AsPC-1; parameters: Viability of PDAC cell lines, ATPlite luminescence, 11-dose single-agent curve fit; settings: Homo sapiens, ASPC1, 72 h, read-out: EC50 [nM]
Procedure, shortened: (§2)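 cells (1000 to 5000 per well) seeded 24 h before drug addition in a screen at 0.2% final DMSO. Controls were drug-free wells (negative) and 5 µM staurosporine (positive).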

PANC-1 = system: PANC-1; parameters: Viability of PDAC cell lines, ATPlite luminescence, 11-dose single-agent curve fit; settings: Homo sapiens, PANC-1, 72 h, read-out: EC50 [nM]
Procedure, shortened: as §2

HuP-T4 = system: HuP-T4; parameters: Viability of PDAC cell lines, ATPlite luminescence, 11-dose single-agent curve fit; settings: Homo sapiens, HuP-T4, 72 h, read-out: EC50 [nM]
Procedure, shortened: as §2

BxPC-3 [5] = system: BxPC-3; parameters: Viability of PDAC cell lines, ATPlite luminescence, 11-dose single-agent curve fit; settings: Homo sapiens, BXPC-3, 72 h, read-out: EC50 [nM]
Procedure, shortened: as §2

MiaPaCa-2 [6] = system: MiaPaCa-2; parameters: Viability of PDAC cell lines, ATPlite luminescence, 11-dose single-agent curve fit; settings: Homo sapiens, MIA PaCa-2, 72 h, read-out: EC50 [nM]
Procedure, shortened: as §2

PSN-1 [7] = system: PSN-1; parameters: Viability of PDAC cell lines, ATPlite luminescence, 11-dose single-agent curve fit; settings: Homo sapiens, PSN1, 72 h, read-out: EC50 [nM]
Procedure, shortened: as §2

Capan-1 = system: Capan-1; parameters: Viability of PDAC cell lines, ATPlite luminescence, 11-dose single-agent curve fit; settings: Homo sapiens, CAPAN-1, 72 h, read-out: EC50 [nM]
Procedure, shortened: as §2

PaTu-8988-T [8] = system: PaTu-8988-T; parameters: Viability of PDAC cell lines, ATPlite luminescence, 11-dose single-agent curve fit; settings: Homo sapiens, PaTu 8988t, 72 h, read-out: EC50 [nM]
Procedure, shortened: as §2

Suit2-07 [9] = system: Suit2-07; parameters: Viability of PDAC cell lines, ATPlite luminescence, 11-dose single-agent curve fit; settings: 72 h, read-out: EC50 [nM]
Procedure, shortened: as §2

FAMPAC [10] = system: FAMPAC; parameters: Viability of PDAC cell lines, ATPlite luminescence, 11-dose single-agent curve fit; settings: 72 h, read-out: EC50 [nM]
Procedure, shortened: as §2

AsPC-1 [11] = system: AsPC-1; parameters: ATPlite luminescence viability of PDAC cell lines, 11-dose single-agent curves, 4-parameter fit; settings: Homo sapiens, ASPC1, 72 h, read-out: EC50 [nM]
Procedure, shortened: as §1

BxPC-3 [12] = system: BxPC-3; parameters: ATPlite luminescence viability of PDAC cell lines, 11-dose single-agent curves, 4-parameter fit; settings: Homo sapiens, BXPC-3, 72 h, read-out: EC50 [nM]
Procedure, shortened: as §1

MiaPaCa-2 [13] = system: MiaPaCa-2; parameters: ATPlite luminescence viability of PDAC cell lines, 11-dose single-agent curves, 4-parameter fit; settings: Homo sapiens, MIA PaCa-2, 72 h, read-out: EC50 [nM]
Procedure, shortened: as §1

PSN-1 [14] = system: PSN-1; parameters: ATPlite luminescence viability of PDAC cell lines, 11-dose single-agent curves, 4-parameter fit; settings: Homo sapiens, PSN1, 72 h, read-out: EC50 [nM]
Procedure, shortened: as §1

PaTu-8988-T [15] = system: PaTu-8988-T; parameters: ATPlite luminescence viability of PDAC cell lines, 11-dose single-agent curves, 4-parameter fit; settings: Homo sapiens, PaTu 8988t, 72 h, read-out: EC50 [nM]
Procedure, shortened: as §1

Suit2-07 [16] = system: Suit2-07; parameters: ATPlite luminescence viability of PDAC cell lines, 11-dose single-agent curves, 4-parameter fit; settings: 72 h, read-out: EC50 [nM]
Procedure, shortened: as §1

FAMPAC [17] = system: FAMPAC; parameters: ATPlite luminescence viability of PDAC cell lines, 11-dose single-agent curves, 4-parameter fit; settings: 72 h, read-out: EC50 [nM]
Procedure, shortened: as §1

Colo-357 [18] = system: Colo-357; parameters: Viability of PDAC cell lines, ATPlite luminescence, 11-dose single-agent curve fit; settings: Homo sapiens, COLO357, 72 h, read-out: EC50 [nM]
Procedure, shortened: as §2

HPDE [19] = system: HPDE; parameters: Viability of PDAC cell lines, ATPlite luminescence, 11-dose single-agent curve fit; settings: HPDE, 72 h, read-out: EC50 [nM]
Procedure, shortened: as §2

Dan-G [20] = system: Dan-G; parameters: Viability of PDAC cell lines, ATPlite luminescence, 11-dose single-agent curve fit; settings: 72 h, read-out: EC50 [nM]
Procedure, shortened: as §2

Structure (SMILES)	EC50 (Colo-357 [1]) [nM]	EC50 (HPDE [2]) [nM]	EC50 (Dan-G [3]) [nM]	EC50 (AsPC-1 [4]) [nM]	EC50 (PANC-1) [nM]	EC50 (HuP-T4) [nM]	EC50 (BxPC-3 [5]) [nM]	EC50 (MiaPaCa-2 [6]) [nM]	EC50 (PSN-1 [7]) [nM]	EC50 (Capan-1) [nM]	EC50 (PaTu-8988-T [8]) [nM]	EC50 (Suit2-07 [9]) [nM]	EC50 (FAMPAC [10]) [nM]	EC50 (AsPC-1 [11]) [nM]	EC50 (BxPC-3 [12]) [nM]	EC50 (MiaPaCa-2 [13]) [nM]	EC50 (PSN-1 [14]) [nM]	EC50 (Suit2-07 [16]) [nM]	EC50 (Colo-357 [18]) [nM]	EC50 (HPDE [19]) [nM]	other results
COc1cc2ncnc(Nc3cccc(Cl)c3F)c2cc1OC(=O)N1CCN(C)C[C@H]1C [AZD3759]	464	483	445	515	8860	2590	847	2570	2560	1200	1690	1330	2880	–	–	–	–	–	–	–	–
COC(=O)c1ccc2c(c1)NC(=O)/C2=C(\Nc1ccc(N(C)C(=O)CN2CCN(C)CC2)cc1)c1ccccc1 [Nintedanib]	–	–	6960	–	77.7	146	–	–	–	10200	–	–	–	> 10000	4940	1030	8030	> 10000	9780	1550	EC50 (PaTu-8988-T [15]): 6690 nM; EC50 (FAMPAC [17]): > 10000 nM
COC(=O)N[C@@H](C)CNc1nccc(-c2cn(C(C)C)nc2-c2cc(Cl)cc(NS(C)(=O)=O)c2F)n1 [Encorafenib]	1020	–	620	–	6620	–	–	–	–	453	1220	–	–	3210	296	1290	800	1790	–	1140	EC50 (FAMPAC [17]): 943 nM
C=CC(=O)N1CCC([C@@H]2CCNc3c(C(N)=O)c(-c4ccc(Oc5ccccc5)cc4)nn32)CC1 [Zanubrutinib]	–	3010	–	300	3410	796	–	9130	132	2290	547	7180	75.9	–	> 10000	–	–	–	2200	–	EC50 (Dan-G [20]): 578 nM
COc1cc(CCc2cc(NC(=O)c3ccc(N4C[C@@H](C)N[C@@H](C)C4)cc3)n[nH]2)cc(OC)c1 [AZD4547]	–	–	–	–	5350	9460	–	–	–	0.79	7380	–	> 10000	> 10000	6320	> 10000	8650	9040	1080	5300	EC50 (Dan-G [20]): 0.1 nM
Cc1nc(NC(=O)N2CCC[C@H]2C(N)=O)sc1-c1ccnc(C(C)(C)C(F)(F)F)c1 [Alpelisib]	355	–	661	–	> 10000	21.8	–	–	269	5110	–	2060	3750	3740	1640	1400	–	–	–	7680	EC50 (PaTu-8988-T [15]): 3930 nM
CNC(=O)c1cccc2cc(Oc3ccnc4cc(OCC5(N)CC5)c(OC)cc34)ccc12 [Lucitanib]	–	9210	–	8920	2920	> 10000	9500	> 10000	8180	> 10000	5920	5330	> 10000	–	–	–	–	–	> 10000	–	EC50 (Dan-G [20]): 665 nM
C#Cc1cccc(Nc2ncnc3cc4c(cc23)OCCOCCOCCO4)c1 [Icotinib]	2260	1000	1530	416	716	0.21	5260	1760	42	1900	91.9	101	6990	–	–	–	–	–	–	–	–
CS(=O)(=O)CCNCc1ccc(-c2ccc3ncnc(Nc4ccc(OCc5cccc(F)c5)c(Cl)c4)c3c2)o1 [Lapatinib]	815	> 10000	3780	> 10000	> 10000	> 10000	8320	> 10000	> 10000	> 10000	> 10000	7910	> 10000	–	–	–	–	–	–	–	–
COCc1c(-c2cc3cc(C)cc(OC)c3s2)c2c(N)ncnn2c1CN1CCNC(=O)C1 [Rogaratinib]	–	–	3460	–	3980	24.2	–	–	–	5610	–	–	–	3450	4270	2050	3270	> 10000	3150	7330	EC50 (PaTu-8988-T [15]): 3870 nM; EC50 (FAMPAC [17]): 3300 nM
C=CC(=O)N1CCC[C@@H](n2nc(-c3ccc(Oc4ccccc4)cc3)c3c(N)ncnc32)C1 [Ibrutinib]	–	521	56.6	46.1	1170	54.2	128	1840	1100	317	166	396	28.3	–	–	–	–	–	373	–	–
